Results published in patent US8318938B2, “Trans-fused chromenoisoquinolines synthesis and methods for use” (Purdue Research Foundation, priority 2006, dated 2012).
Values joined by “and” are separate entries in the source; they are usually repeats but may differ in a detail not shown here. Identical values can stand only once. Counter-ions that a name gives are not always drawn.

Experiments:
α2C adrenergic receptor [1] = target: T1, α2C adrenergic receptor (Homo sapiens, UniProt P18825); test: Inhibition of forskolin-stimulated cyclic AMP accumulation in HEK293 cells stably expressing the α2C receptor; format: cell-based; conditions: for Intrinsic Activity (% forskolin), α2C Adrenergic / EC50: HEK-α2C cells; for Intrinsic Activity (% forskolin), α2C Adrenergic: inhibition of cyclic AMP stimulated by 30 μM forskolin; for EC50: 30 μM forskolin, 15 min at 37° C.
T1 construct: expressed in transfected cells; host or cells: HEK293 (HEK-α2C)
T1 sequence (P18825 1-462): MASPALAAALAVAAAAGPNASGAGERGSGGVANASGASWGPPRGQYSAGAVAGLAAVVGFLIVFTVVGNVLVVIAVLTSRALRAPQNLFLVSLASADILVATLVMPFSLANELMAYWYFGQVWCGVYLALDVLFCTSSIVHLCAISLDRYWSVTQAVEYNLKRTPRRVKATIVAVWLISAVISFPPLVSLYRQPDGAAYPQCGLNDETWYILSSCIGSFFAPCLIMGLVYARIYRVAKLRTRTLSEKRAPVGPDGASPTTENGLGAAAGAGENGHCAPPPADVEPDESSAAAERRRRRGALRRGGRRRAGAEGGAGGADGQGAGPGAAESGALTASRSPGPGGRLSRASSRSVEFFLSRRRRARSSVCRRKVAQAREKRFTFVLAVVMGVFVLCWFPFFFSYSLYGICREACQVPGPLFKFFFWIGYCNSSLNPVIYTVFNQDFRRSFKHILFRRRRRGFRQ
Source text: The data presented have been normalized to the maximal cyclic AMP accumulation observed in the presence of forskolin alone and are the mean±SEM of three independent experiments assayed in duplicate.
Briefly, HEK D1-CreLuc cells were created by a two step process. HEK293 cells were co-transfected with the pBabe Puro and pGL-CreLuc vectors. Puromycin resistant clones, which expressed the functional cyclic AMP response element-linked luciferase reporter gene, were selected. Next, HEK-CreLuc cells were stably transfected with pcDNA3.1 (+)-D1. Clones were assayed for D1 receptor function by measuring cyclic AMP accumulation and luciferase activity. HEK-α2C cells were constructed by stable transfection with pcDNA.3(+)-α2C. G418 resistant clones were selected and assayed for α2C function by measuring inhibition of forskolin-stimulated cyclic AMP accumulation.
(§1) Cell Culture. […] Cells were grown at 37° C. in a humidified incubator with 6% CO2.
(§2) Cyclic AMP accumulation assay. Assays were performed on confluent monolayers of cells in 48-well plates. […] Cyclic AMP stimulation assays were performed on HEK D1-CRELuc or MCF7 cells by incubating the cells with ligands for 15 minutes at 37° C. Cyclic AMP inhibition assays were performed on HEK-α2C cells in the presence 30 μM forskolin to stimulate cyclic AMP formation. All assays were performed in the presence of 500 μM isobutylmethylxanthine (IBMX) and terminated with ice cold 3% trichloroacetic acid.
(§3) Cyclic AMP binding assay. […] Briefly, cellular lysate (15-20 μL) was added to cyclic AMP binding buffer (100 mM Tris-HCl, pH 7.4, 100 mM NaCl, 5 mM EDTA) in assay tubes containing 1 nM final concentration [^3H]cyclic AMP and bovine adrenal gland cyclic AMP binding protein (100-150 μg in 500 μl binding buffer). The binding assay was incubated on ice at 4° C. for 2-4 hours and terminated by harvesting with ice cold wash buffer (10 mM Tris, 0.9% NaCl) using a 96-well Packard Filtermate cell harvester and Millipore Multiscreen Harvest Plates (Millipore, Billerica, Mass., USA). Packard Microscint O (40 μL) was added to each well after drying. Radioactivity was counted using a Packard Topcount scintillation counter. Standard curves ranging from 0.01 to 300 pmol of cyclic AMP were used to determine the concentration of cyclic AMP in each sample. Data analysis was performed on GraphPad Prism software.

[2] = target: human dopamine D1 receptor (Homo sapiens, UniProt P21728); test: Cyclic AMP accumulation in HEK cells stably expressing the human dopamine D1 receptor (cloned hD1); format: cell-based; conditions: normalized to maximal cyclic AMP accumulation with dopamine
Chain of human dopamine D1 receptor (P21728 whole entry): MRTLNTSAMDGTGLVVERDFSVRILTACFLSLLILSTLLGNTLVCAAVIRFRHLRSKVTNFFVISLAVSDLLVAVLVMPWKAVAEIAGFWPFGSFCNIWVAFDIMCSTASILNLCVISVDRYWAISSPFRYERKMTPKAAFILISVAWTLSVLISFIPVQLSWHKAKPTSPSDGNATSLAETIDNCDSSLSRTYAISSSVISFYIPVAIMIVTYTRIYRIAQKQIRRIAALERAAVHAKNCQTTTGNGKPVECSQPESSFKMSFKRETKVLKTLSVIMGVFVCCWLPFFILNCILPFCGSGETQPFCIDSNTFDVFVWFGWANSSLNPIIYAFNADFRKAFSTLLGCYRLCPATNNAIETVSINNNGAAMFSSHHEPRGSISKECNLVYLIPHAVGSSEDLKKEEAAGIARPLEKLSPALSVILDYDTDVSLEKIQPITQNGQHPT
Protocol: Cyclic AMP accumulation assay. Assays were performed on confluent monolayers of cells in 48-well plates. […] Cyclic AMP stimulation assays were performed on HEK D1-CRELuc or MCF7 cells by incubating the cells with ligands for 15 minutes at 37° C. […] All assays were performed in the presence of 500 μM isobutylmethylxanthine (IBMX) and terminated with ice cold 3% trichloroacetic acid.

[3] = target: endogenous human D1-like dopamine receptor in MCF7 cells (Homo sapiens, UniProt P21728); conditions: for Intrinsic Activity (% dopamine), Endogenous hD1: normalized to maximal cyclic AMP accumulation with dopamine (FIG. 3A)
Chain of endogenous human D1-like dopamine receptor in MCF7 cells (P21728 whole entry): as above
Protocol: The data presented in FIG. 2B are the mean±SEM of three independent experiments assayed in duplicate.
The data presented in FIGS. 3B-C are the mean±SEM of three independent experiments assayed in duplicate.
as §1, §2, §3

[4] = target: native D1-like dopamine receptors in porcine striatal tissue (Sus scrofa, UniProt P50130); test: Porcine striatal cyclase assay (cyclic AMP stimulation in striatal homogenate); format: biochemical; conditions: read-out: intrinsic activity in porcine striatal tissue
Chain of native D1-like dopamine receptors in porcine striatal tissue (P50130 whole entry): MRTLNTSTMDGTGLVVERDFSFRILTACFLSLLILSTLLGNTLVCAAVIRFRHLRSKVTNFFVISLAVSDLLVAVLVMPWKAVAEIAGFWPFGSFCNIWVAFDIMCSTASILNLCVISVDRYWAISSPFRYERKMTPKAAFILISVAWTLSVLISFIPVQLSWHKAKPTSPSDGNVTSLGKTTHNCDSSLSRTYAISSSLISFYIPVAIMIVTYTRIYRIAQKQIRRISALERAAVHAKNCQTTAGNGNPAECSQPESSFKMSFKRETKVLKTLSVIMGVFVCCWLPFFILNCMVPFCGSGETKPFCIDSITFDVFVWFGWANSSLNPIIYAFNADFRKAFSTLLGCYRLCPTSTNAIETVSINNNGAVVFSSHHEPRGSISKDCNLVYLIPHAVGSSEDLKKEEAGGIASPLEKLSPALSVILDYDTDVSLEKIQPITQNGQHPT
Protocol: as §3
The homogenate was centrifuged at 1,000×g for 10 min at 4° C.

α2C adrenergic receptor [5] = target: T1, α2C adrenergic receptor; test: NIMH-sponsored Psychoactive Drug Screening Program affinity screen; format: binding; conditions: NIMH PDSP screen

SMILES: Clc1cccc(Cl)c1N=C1NCCN1 [Clonidine, reference compound]
- Intrinsic Activity (% forskolin), α2C Adrenergic (α2C adrenergic receptor [1]): 61 ± 5 % forskolin

SMILES: Cl.c1ccc2c(c1)CN[C@H]1COc3cc4c(cc3[C@H]21)OCO4
- melting point: 163 °C

SMILES: C1=NC2COc3cc4c(cc3C2c2ccccc21)OCO4 (stereo not drawn) [Example 5, 2,3-Methylenedioxy-6a,12b-dihydro-6H-chromeno[3,4-c]isoquinoline]
- melting point: 191 °C

SMILES: O=C1N[C@@H]2COc3cc4c(cc3[C@H]2c2ccsc21)OCO4 (racemic) [Example 23, (±)-Trans-9,10-methylenedioxy-5,5a,6,11b-tetrahydro-4H-chromeno[3,4-b]thieno[3,2-d]pyridin-4-one]
- melting point: > 250 °C

SMILES: c1ccc2c(c1)CNC1COc3cc4c(cc3C21)OCO4 (stereo not drawn) [Example 6, 2,3-Methylenedioxy-6a,7,8,12b-tetrahydro-6H-chromeno[3,4-c]isoquinoline]
- melting point: 188 °C

SMILES: Cc1ccc2c(c1)C1c3cc4c(cc3OCC1NC2=O)OCO4 (stereo not drawn) [Example 16, 2,3-methylenedioxy-11-methyl-6a,7-dihydro-6H-12bH-chromeno[3,4-c]isoquinolin-8-one]
- melting point: > 250 °C

SMILES: Oc1cc2c(cc1O)[C@H]1c3ccccc3CN[C@@H]1CO2 [(+)-ODHX, (+)-(6aS,12bR)-2,3-Dihydroxy-6a,7,8,12b-tetrahydro-6H-chromeno[3,4-c]isoquinoline hydrochloride]
- Intrinsic Activity (% dopamine), Cloned hD1 ([2]; hydrochloride): 109±6 % dopamine
- Intrinsic Activity (% dopamine), Endogenous hD1 [3]: 131 ± 13 % dopamine
- Emax [4]: 115 ± 15%
- intrinsic activity as share of the intrinsic activity of (−)-ODHX at α2C receptor (α2C adrenergic receptor [1]): ca. 50%
- EC50 (α2C adrenergic receptor [1]): 151 ± 25 nM
- Intrinsic Activity (% forskolin), α2C Adrenergic (α2C adrenergic receptor [1]; hydrochloride): 34±6 % forskolin and 34 ± 7 % forskolin

SMILES: Cl.Oc1cc2c(cc1O)[C@@H]1c3ccccc3CN[C@H]1CO2 [(−)-ODHX, (−)-(6aR,12bS)-2,3-Dihydroxy-6a,7,8,12b-tetrahydro-6H-chromeno[3,4-c]isoquinoline hydrochloride]
- Intrinsic Activity (% dopamine), Cloned hD1 [2]: 85 ± 6 % dopamine
- effect alone on cyclic AMP levels ([3]; 10 μM alone): significant increase in cyclic AMP levels
- antagonism of dopamine- and (+)-ODHX-stimulated cyclic AMP accumulation ([3]; dose-response curves in presence of 10 μM (−)-ODHX (FIGS. 3B-C)): reduced the intrinsic activity and potency of both dopamine and (+)-ODHX
- EC50 (α2C adrenergic receptor [1]): 4.4 nM
- Intrinsic Activity (% forskolin), α2C Adrenergic (α2C adrenergic receptor [1]): 69 ± 2 % forskolin

SMILES: Cl.Oc1cc2c(cc1O)C1c3ccccc3CNC1CO2 (racemic) [(±)-ODHX, 2,3-Dihydroxy-6a,7,8,12b-tetrahydro-6H-chromeno[3,4-c]isoquinoline hydrochloride]
- Intrinsic Activity (% dopamine), Endogenous hD1 [3]: 80 ± 3 % dopamine
- Ki (α2C adrenergic receptor [5]): ~2 nM

SMILES: Cl.c1ccc2c(c1)CN[C@@H]1COc3cc4c(cc3[C@@H]21)OCO4
- melting point: 163 °C

SMILES: Br.Cc1ccc2c(c1)C1c3cc(O)c(O)cc3OCC1NC2 (stereo not drawn)
- melting point: 195 to 200 °C (dec.)
